For assay [1], the system named is Yersinia strain pIB102EL (YopE gene transcriptionally fused to luxAB). It is filed as cell-based, Y. pseudotuberculosis.
Assay [2] has as its system YopH secretion by Yersinia-strain pIB102. It counts as cell-based, Y. pseudotuberculosis. The conditions noted are these: reduction of assay read-out (pNPP dephosphorylation, 405 nm) at 50 or 20 μM; Ca2+ depleted medium, 37° C.
The subject of assay [3] is J774A cells infected with Y. pseudotuberculosis YPIII (pIB102). It is filed as cell-based. The conditions noted are these: survival of the infected J774A cells at 20 or 10 μM; MOI 10, 16 h of infection.
The subject of assay [4] is Enterotoxic Escherichia coli (ETEC). It is filed as cell-based.

The values below come from patent publication US20100099674A1 (priority 2007, published 2010).

Consider `O=[N+]([O-])c1cc(CN2CCN(c3ccccc3)CC2)c(O)c2ncccc12` [Substance 1], for which, in assay [1], the “Lux Assay” value is recorded as “++ (key: + = <50% reduction of assay read-out at 50 μM; ++ = <50% reduction of assay read-out at 20 μM)”. In addition, the “YopH Assay” value in assay [2] is on record as “++ (++ = <50% reduction of assay read-out at 20 μM)”. In addition, the “Ex vivo Y. pseudotb.” value in assay [3] is reported as “++ (++ = >70% survival of the infected cells at 10 μM)”.

On to `CN(Cc1cc([N+](=O)[O-])c2cccnc2c1O)C1CCCCC1` [Substance 2], for which the “Lux Assay” value in assay [1] is “+ (key: + = <50% reduction of assay read-out at 50 μM; ++ = <50% reduction of assay read-out at 20 μM)”.

Turning to `COc1ccccc1N1CCN(Cc2cc([N+](=O)[O-])c3cccnc3c2O)CC1` [Substance 3], in assay [1], the “Lux Assay” value was “++ (key: + = <50% reduction of assay read-out at 50 μM; ++ = <50% reduction of assay read-out at 20 μM)”. Moreover, the “YopH Assay” value in assay [2] is listed as “+ (+ = <50% reduction of assay read-out at 50 μM)”. Also, the “Ex vivo Y. pseudotb.” value in assay [3] was “+ (+ = >70% survival of the infected cells at 20 μM)”.

Turning to `CC1CN(Cc2cc([N+](=O)[O-])c3cccnc3c2O)CC(C)O1` (stereo not drawn) [Substance 4], in assay [1], the “Lux Assay” value is given as “+ (key: + = <50% reduction of assay read-out at 50 μM; ++ = <50% reduction of assay read-out at 20 μM)”. Also, the “YopH Assay” value in assay [2] was “+ (+ = <50% reduction of assay read-out at 50 μM)”. Besides, the “Ex vivo Y. pseudotb.” value in assay [3] is “+ (+ = >70% survival of the infected cells at 20 μM)”. Also, the “Ex vivo ETEC (Neg Control)” value in assay [4] is reported as “+ (key: + = >70% survival of the infected cells at 50 μM; ++ = >70% survival of the infected cells at 20 μM)”.

With `O=[N+]([O-])c1cc(CN2CCC(c3ccccc3)C2)c(O)c2ncccc12` (stereo not drawn) [Substance 5], the “Lux Assay” value in assay [1] is recorded as “++ (key: + = <50% reduction of assay read-out at 50 μM; ++ = <50% reduction of assay read-out at 20 μM)”. The “YopH Assay” value in assay [2] is reported as “++ (++ = <50% reduction of assay read-out at 20 μM)”. Moreover, the “Ex vivo Y. pseudotb.” value in assay [3] was “+ (+ = >70% survival of the infected cells at 20 μM)”. In addition, in assay [4], the “Ex vivo ETEC (Neg Control)” value is listed as “++ (key: + = >70% survival of the infected cells at 50 μM; ++ = >70% survival of the infected cells at 20 μM)”.

In the case of `Oc1c(CN2CCN(c3ccccn3)CC2)cc(Cl)c2cccnc12` [Substance 6], in assay [1], the “Lux Assay” value is listed as “+ (key: + = <50% reduction of assay read-out at 50 μM; ++ = <50% reduction of assay read-out at 20 μM)”. The “YopH Assay” value in assay [2] is recorded as “+ (+ = <50% reduction of assay read-out at 50 μM)”. Further, in assay [3], the “Ex vivo Y. pseudotb.” value is listed as “+ (+ = >70% survival of the infected cells at 20 μM)”. Further, the “Ex vivo ETEC (Neg Control)” value in assay [4] was “+ (key: + = >70% survival of the infected cells at 50 μM; ++ = >70% survival of the infected cells at 20 μM)”.

Take `Oc1c(CN2CCN(c3ccc(F)cc3)CC2)cc(Br)c2cccnc12` [Substance 7]: the “Lux Assay” value in assay [1] is recorded as “+ (key: + = <50% reduction of assay read-out at 50 μM; ++ = <50% reduction of assay read-out at 20 μM)”. Besides, in assay [2], the “YopH Assay” value is recorded as “+ (+ = <50% reduction of assay read-out at 50 μM)”. In assay [3], the “Ex vivo Y. pseudotb.” value is recorded as “++ (++ = >70% survival of the infected cells at 10 μM)”. In addition, the “Ex vivo ETEC (Neg Control)” value in assay [4] is given as “++ (key: + = >70% survival of the infected cells at 50 μM; ++ = >70% survival of the infected cells at 20 μM)”.

As for `Oc1c(CN2CCN(c3ccc(F)cc3)CC2)cc(Cl)c2cccnc12` [Substance 8], the “Lux Assay” value in assay [1] is reported as “+ (key: + = <50% reduction of assay read-out at 50 μM; ++ = <50% reduction of assay read-out at 20 μM)”. For the same compound, the “YopH Assay” value in assay [2] was “+ (+ = <50% reduction of assay read-out at 50 μM)”. Moreover, the “Ex vivo Y. pseudotb.” value in assay [3] was “++ (++ = >70% survival of the infected cells at 10 μM)”. Further, the “Ex vivo ETEC (Neg Control)” value in assay [4] is reported as “+ (key: + = >70% survival of the infected cells at 50 μM; ++ = >70% survival of the infected cells at 20 μM)”.
